Measurements taken from patent US20100113540A1, “Azole and Thiazole Derivatives and Their Use” (ARGENTA DISCOVERY LIMITED, priority 2005, published 2010).
Counter-ions that a name gives are not always drawn.

Target: T1, M3 muscarinic receptor (Homo sapiens, UniProt P20309)
T1 construct: purchased
Assay: Muscarinic receptor radioligand binding assay ([3H]-NMS), M3
Details: cell membranes expressing human M3 receptor
Experimental: The inhibitory effects of compounds of the present invention at the M3 muscarinic receptor and (in the case of Example 77) the β2 adrenergic receptor, were determined by the following binding assays:
Radioligand binding studies utilising [^3H]-N-methyl scopolamine ([^3H]-NMS) and commercially available cell membranes expressing the human muscarinic receptors (M2 and M3) were used to assess the affinity of muscarinic antagonists for M2 and M3 receptors. Membranes in TRIS buffer were incubated in 96-well plates with [^3H]-NMS and M3 antagonist at various concentrations for 3 hours. Membranes and bound radioligand were then harvested by filtration and allowed to dry overnight. Scintillation fluid was then added and the bound radioligand counted using a Can berra Packard Topcount scintillation counter

T1 sequence (P20309 whole entry): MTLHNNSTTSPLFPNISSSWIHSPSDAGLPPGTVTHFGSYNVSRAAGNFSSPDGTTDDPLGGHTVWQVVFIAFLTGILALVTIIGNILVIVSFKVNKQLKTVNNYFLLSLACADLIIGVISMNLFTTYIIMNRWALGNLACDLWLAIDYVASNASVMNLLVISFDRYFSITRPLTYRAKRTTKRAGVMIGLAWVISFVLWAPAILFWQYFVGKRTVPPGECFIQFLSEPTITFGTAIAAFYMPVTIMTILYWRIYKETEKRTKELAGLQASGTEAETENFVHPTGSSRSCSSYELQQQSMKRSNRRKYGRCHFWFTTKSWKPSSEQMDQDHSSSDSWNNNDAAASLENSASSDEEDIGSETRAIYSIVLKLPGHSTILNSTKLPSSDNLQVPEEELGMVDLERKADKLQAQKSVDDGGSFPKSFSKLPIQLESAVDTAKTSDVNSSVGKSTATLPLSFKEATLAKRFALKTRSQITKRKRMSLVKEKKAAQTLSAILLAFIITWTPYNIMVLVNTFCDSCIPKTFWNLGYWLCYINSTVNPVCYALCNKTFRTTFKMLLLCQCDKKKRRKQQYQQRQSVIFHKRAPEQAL

Compound | Ki [nM]
CN(C)Cc1cnc([C@@](O)(c2ccccc2)C2CCCCC2)o1 (single isomer, unassigned) [Example 5] | > 10
CN(C)Cc1cnc([C@](O)(c2ccccc2)C2CCCCC2)o1 (single isomer, unassigned) [Example 6] | < 1
CN(CCCOc1ccccc1)Cc1cnc([C@@](O)(c2ccccc2)C2CCCCC2)o1 (single isomer, unassigned) [Example 14] | > 10
CN(CCCOc1ccccc1)Cc1cnc([C@](O)(c2ccccc2)C2CCCCC2)o1 (single isomer, unassigned) [Example 15] | 1 to 10
CN(Cc1ccccc1)Cc1cnc([C@](O)(c2ccccc2)C2CCCC2)o1 (single isomer, unassigned) [Example 28, {5-[(Benzyl-methyl-amino)-methyl]-oxazol-2-yl}-cyclopentyl-phenyl-methanol] | > 10
CN(Cc1ccccc1)Cc1cnc([C@@](O)(c2ccccc2)C2CCCC2)o1 (single isomer, unassigned) [Example 29, {5-[(Benzyl-methyl-amino)-methyl]-oxazol-2-yl}-cyclopentyl-phenyl-methanol] | > 10
CN(C)CCc1cnc(C(O)(c2ccccc2)C2CCCCC2)o1 (single isomer, unassigned) [Example 66] | 1 to 10
CN(C)CCc1cnc(C(O)(c2ccccc2)C2CCCCC2)o1 (single isomer, unassigned) [Example 67] | < 1
C[N+](C)(CCCOc1ccccc1)CCc1cnc(C(O)(c2ccccc2)C2CCCCC2)o1 (single isomer, unassigned) [Example 68, {2-[2-(Cyclohexyl-hydroxy-phenyl-methyl)-oxazol-5-yl]-ethyl}-dimethyl-(3-phenoxy-propyl)-ammonium bromide] | 1 to 10
C[N+](C)(CCCOc1ccccc1)CCc1cnc(C(O)(c2ccccc2)C2CCCCC2)o1 (single isomer, unassigned) [Example 69, {2-[2-(Cyclohexyl-hydroxy-phenyl-methyl)-oxazol-5-yl]-ethyl}-dimethyl-(3-phenoxy-propyl)-ammonium bromide] | < 1
C[N+](C)(CCCOc1ccccc1)Cc1cnc([C@@](O)(c2ccccc2)C2CCCC2)o1 (stereo in doubt) [Example 36, [2-(Cyclopentyl-hydroxy-phenyl-methyl)-oxazol-5-ylmethyl]-dimethyl-(3-phenoxy-propyl)-ammonium bromide] | < 1
C[N+](C)(Cc1ccccc1)Cc1cnc([C@@](O)(c2ccccc2)C2CCCC2)o1 (stereo in doubt) [Example 60, Benzyl-[2-(cyclopentyl-hydroxy-phenyl-methyl)-oxazol-5-ylmethyl]-dimethyl-ammonium bromide] | > 10
CN(C)Cc1cnc(C(O)(c2ccccc2)c2ccccc2)o1 [Example 1, (5-Dimethylaminomethyl-oxazol-2-yl)-diphenyv-methanol] | 1 to 10
C[N+](C)(CCCOc1ccccc1)Cc1cnc(C(O)(c2ccccc2)c2ccccc2)o1 [Example 2, [2-(Hydroxy-diphenyl-methyl)-oxazol-5-ylmethyl]-dimethyl-(3-phenoxy-propyl)-ammonium formate] | < 1
CN(C)Cc1cnc(C(O)(c2ccccc2)C2CCCCC2)o1 (stereo not shown) [Example 4, Cyclohexyl-(5-dimethylaminomethyl-oxazol-2-yl)-phenyl-methanol] | < 1
C[N+](C)(CCCOc1ccccc1)Cc1cnc([C@@](O)(c2ccccc2)C2CCCCC2)o1 [Example 7, [2-((S)-Cyclohexyl-hydroxy-phenyl-methyl)-oxazol-5-ylmethyl]-dimethyl-(3-phenoxy-propyl)-ammonium bromide] | 1 to 10
C[N+](C)(CCCOc1ccccc1)Cc1cnc([C@](O)(c2ccccc2)C2CCCCC2)o1 [Example 8, [2-((R)-Cyclohexyl-hydroxy-phenyl-methyl)-oxazol-5-ylmethyl]-dimethyl-(3-phenoxy-propyl)-ammonium bromide] | < 1
CN(CCCOc1ccccc1)Cc1cnc(C(O)(c2ccccc2)C2CCCCC2)o1 (stereo not shown) [Example 13, Cyclohexyl-(5-{[methyl-(3-phenoxy-propyl)-amino]-methyl}-oxazol-2-yl)-phenyl-methanol] | 1 to 10
OC(c1ccccc1)(c1ccccc1)c1ncc(CN2CCC(Oc3ccccc3)CC2)o1 [Example 26, [5-(4-Phenoxy-piperidin-1-ylmethyl)-oxazol-2-yl]-diphenyl-methanol] | > 10

Compound | Ki [nM]
CN(C)Cc1cnc(C(C)(c2ccccc2)c2ccccc2)o1 [Example 30, [2-(1,1-Diphenyl-ethyl)-oxazol-5-ylmethyl]-dimethyl-amine] | > 10
C[N+](C)(CCc1ccccc1)Cc1cnc([C@@](O)(c2ccccc2)C2CCCCC2)o1 [Example 31, [2-((S)-Cyclohexyl-hydroxy-phenyl-methyl)-oxazol-5-ylmethyl]-dimethyl-phenethyl-ammonium bromide] | > 10
C[N+](C)(CCc1ccccc1)Cc1cnc([C@](O)(c2ccccc2)C2CCCCC2)o1 [Example 32, [2-((R)-Cyclohexyl-hydroxy-phenyl-methyl)-oxazol-5-ylmethyl]-dimethyl-phenethyl-ammonium bromide] | < 1
CC(C)=CCC[N+](C)(C)Cc1cnc([C@](O)(c2ccccc2)C2CCCCC2)o1 [Example 33, [2-((R)-Cyclohexyl-hydroxy-phenyl-methyl)-oxazol-5-ylmethyl]-dimethyl-(4-methyl-pent-3-enyl)-ammonium bromide] | < 1
C[N+](C)(CCc1ccc2c(c1)CCO2)Cc1cnc([C@](O)(c2ccccc2)C2CCCCC2)o1 [Example 34, [2-((R)-Cyclohexyl-hydroxy-phenyl-methyl)-oxazol-5-ylmethyl]-[2-(2,3-dihydro-benzofuraan-5-yl)-ethyl]-dimethyl-ammonium bromide] | < 1
Cc1cccc(C[N+](C)(C)Cc2cnc([C@](O)(c3ccccc3)C3CCCCC3)o2)n1 [Example 35, [2-((R)-cyclohexyl-hydroxy-phenyl-methyl)-oxazol-5-ylmethyl]-dimethyl-(6-methyl-pyridin-2-ylmethyl)-ammonium formate] | 1 to 10
C[N+](C)(CCCOc1ccccc1)Cc1cnc([C@](O)(c2ccccc2)C2CCCC2)o1 [Example 37, [2-(Cyclopentyl-hydroxy-phenyl-methyl)-oxazol-5-ylmethyl]-dimethyl-(3-phenoxy-propyl)-ammonium bromide] | < 1
O[C@](c1ccccc1)(c1ncc(C[N+]2(CCCOc3ccccc3)CCCCC2)o1)C1CCCCC1 [Example 38, 1-[2-(Cyclohexyl-hydroxy-phenyl-methyl)-oxazol-5-ylmethyl]-1-(3-phenoxy-propyl)-piperidinium bromide] | 1 to 10
O[C@@](c1ccccc1)(c1ncc(C[N+]2(CCCOc3ccccc3)CCCCC2)o1)C1CCCCC1 [Example 39, 1-[2-(Cyclohexyl-hydroxy-phenyl-methyl)-oxazol-5-ylmethyl]-1-(3-phenoxy-propyl)-piperidinium bromide] | > 10
O[C@](c1ccccc1)(c1ncc(C[N+]2(CCCOc3ccccc3)CCCC2)o1)C1CCCCC1 [Example 40, 1-[2-(Cyclohexyl-hydroxy-phenyl-methyl)-oxazol-5-ylmethyl]-1-(3-phenoxy-propyl)-pyrrolidinium bromide] | < 1
O[C@@](c1ccccc1)(c1ncc(C[N+]2(CCCOc3ccccc3)CCCC2)o1)C1CCCCC1 [Example 41, 1-[2-(Cyclohexyl-hydroxy-phenyl-methyl)-oxazol-5-ylmethyl]-1-(3-phenoxy-propyl)-pyrrolidinium bromide] | > 10
COCCCCCCCC[N+](C)(C)Cc1cnc([C@](O)(c2ccccc2)C2CCCCC2)o1 [Example 42, [2-((R)-Cyclohexyl-hydroxy-phenyl-methyl)-oxazol-5-ylmethyl]-(8-methoxy-octyl)-dimethyl-ammonium formate] | 1 to 10
C[N+](C)(CCCCOc1ccccc1)Cc1cnc([C@](O)(c2ccccc2)C2CCCCC2)o1 [Example 43, [2-((R)-Cyclohexyl-hydroxy-phenyl-methyl)-oxazol-5-ylmethyl]-dimethyl-(4-phenoxy-butyl)-ammonium bromide] | < 1
C[N+](C)(CCOCc1ccccc1)Cc1cnc([C@](O)(c2ccccc2)C2CCCCC2)o1 [Example 44, (2-Benzyloxy-ethyl)-[2-((R)-cyclohexyl-hydroxy-phenyl-methyl)-oxazol-5-ylmethyl]-dimethyl-ammonium bromide] | < 1
C[N+](C)(CCCCc1ccccc1)Cc1cnc([C@](O)(c2ccccc2)C2CCCCC2)o1 [Example 45, [2-((R)-Cyclohexyl-hydroxy-phenyl-methyl)-oxazol-5-ylmethyl]-dimethyl-(4-phenyl-butyl)-ammonium bromide] | < 1
C[N+](C)(CCCOc1ccc(F)cc1)Cc1cnc([C@](O)(c2ccccc2)C2CCCCC2)o1 [Example 46, [2-((R)-Cyclohexyl-hydroxy-phenyl-methyl)-oxazol-5-ylmethyl]-[3-(4-fluoro-phenoxy)-propyl]-dimethyl-ammonium bromide] | < 1
CN(CCCCCCCC[N+](C)(C)Cc1cnc([C@](O)(c2ccccc2)C2CCCCC2)o1)C(=O)OC(C)(C)C [Example 47, [8-(tert-butoxycarbonyl-methyl-amino)-octyl]-[2-((R)-cyclohexyl-hydroxy-phenyl-methyl)-oxazol-5-ylmethyl]-dimethyl-ammonium methanesulfonate] | 1 to 10
C[N+](C)(CCCc1ccccc1)Cc1cnc([C@](O)(c2ccccc2)C2CCCCC2)o1 [Example 48, [2-((R)-cyclohexyl-hydroxy-phenyl-methyl)-oxazol-5-ylmethyl]-dimethyl-(3-phenyl-propyl)-ammonium formate] | < 1
